Where two headings read alike, the source gives them in different places.
What was measured:
[1] = cc_pd bond, 18-membered ring, toluene
NBD1 = target: T1, NBD1 (Homo sapiens, UniProt P13569); test: Aggregation analysis using differential static light scattering (DSLS), thermal stability of NBD1 (ΔTagg); type: binding; conditions: ΔTagg versus DMSO control, NBD1 0.2 mg/ml
T1 construct: Purified recombinant NBD1 was produced using previously described methods; made in house
How it was run: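 Purified recombinant NBD1 at 0.2 mg/ml in 50 mM Tris-HCl, 150 mM NaCl, 5 mM MgCl2, 2 mM ATP, 2 mM DTT, pH 7.6, 1% glycerol, with compound, heated 1° C./min to 70° C. under light-scattering monitoring. Tagg taken at curve inflection; ΔTagg is compound Tagg minus mean DMSO-control Tagg, binned A (≤5° C.), B (>5-≤10° C.), C (>10-≤25° C.).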

CFTR = target: T2, CFTR (Homo sapiens, UniProt P13569, DEL508-508); test: TECC24 AUC fold over DMSO @10 μM, CFTR-mediated transepithelial chloride transport in CF-HBE cells; type: cell-based; conditions: test agent AUC divided by DMSO vehicle AUC, primary CF-HBE cells, ΔF508 homozygous donor, 48 hours incubation
T2 construct: Primary human bronchial epithelial cells from a ΔF508 homozygous CF donor; host or cells: primary human bronchial epithelial cells (CF-HBE), ΔF508 homozygous donor
How it was run: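 ΔF508-homozygous primary bronchial epithelial cells incubated 48 h at 36.5° C with compound (10 μM) in IL-13-containing medium, then TECC24 current-clamp recording in pH 7.4 Hepes saline with benzamil 10 μM, forskolin 10 μM, then CFTR inhibitor-172 20 μM. Equivalent Cl− current AUC between forskolin and inhibitor, expressed as fold over DMSO.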

T2 sequence (P13569 with tags, fused parts or gaps DEL508-508): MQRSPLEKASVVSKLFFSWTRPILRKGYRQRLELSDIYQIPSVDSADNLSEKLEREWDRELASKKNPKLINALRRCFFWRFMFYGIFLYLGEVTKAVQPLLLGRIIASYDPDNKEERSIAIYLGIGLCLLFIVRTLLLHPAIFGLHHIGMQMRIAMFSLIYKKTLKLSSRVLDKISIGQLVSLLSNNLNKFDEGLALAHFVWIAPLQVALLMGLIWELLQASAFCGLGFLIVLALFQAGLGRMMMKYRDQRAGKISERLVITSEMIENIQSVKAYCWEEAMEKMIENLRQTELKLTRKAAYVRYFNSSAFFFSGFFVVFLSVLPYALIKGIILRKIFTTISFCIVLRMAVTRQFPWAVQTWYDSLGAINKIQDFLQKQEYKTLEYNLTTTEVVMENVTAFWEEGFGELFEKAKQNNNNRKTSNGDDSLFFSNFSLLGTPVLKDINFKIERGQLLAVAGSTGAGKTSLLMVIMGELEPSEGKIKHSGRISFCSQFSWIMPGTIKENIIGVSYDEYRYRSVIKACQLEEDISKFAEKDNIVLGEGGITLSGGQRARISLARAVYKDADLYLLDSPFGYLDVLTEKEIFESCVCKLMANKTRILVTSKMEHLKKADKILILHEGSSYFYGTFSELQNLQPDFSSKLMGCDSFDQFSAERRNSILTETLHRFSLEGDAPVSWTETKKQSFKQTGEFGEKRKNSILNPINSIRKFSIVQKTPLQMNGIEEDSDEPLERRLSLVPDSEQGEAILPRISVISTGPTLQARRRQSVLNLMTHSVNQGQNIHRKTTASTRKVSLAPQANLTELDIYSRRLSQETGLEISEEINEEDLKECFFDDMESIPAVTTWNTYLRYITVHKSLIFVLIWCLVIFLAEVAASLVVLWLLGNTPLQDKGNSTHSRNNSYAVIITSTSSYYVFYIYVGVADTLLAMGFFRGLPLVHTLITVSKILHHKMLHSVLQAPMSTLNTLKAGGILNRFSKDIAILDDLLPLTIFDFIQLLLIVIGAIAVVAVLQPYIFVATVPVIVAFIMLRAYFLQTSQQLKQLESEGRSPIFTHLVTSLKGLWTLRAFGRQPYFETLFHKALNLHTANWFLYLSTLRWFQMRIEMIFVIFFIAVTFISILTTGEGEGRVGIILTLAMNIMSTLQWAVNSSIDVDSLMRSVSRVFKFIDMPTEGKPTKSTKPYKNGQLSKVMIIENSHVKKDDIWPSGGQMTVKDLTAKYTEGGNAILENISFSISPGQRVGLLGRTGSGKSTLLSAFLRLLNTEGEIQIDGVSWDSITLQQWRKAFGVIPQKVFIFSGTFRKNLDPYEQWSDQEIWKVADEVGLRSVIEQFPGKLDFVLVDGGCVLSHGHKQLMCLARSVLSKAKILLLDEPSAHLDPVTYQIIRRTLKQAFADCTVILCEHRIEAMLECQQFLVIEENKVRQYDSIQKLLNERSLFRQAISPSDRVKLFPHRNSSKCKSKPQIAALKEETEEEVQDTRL
T1 sequence (P13569 423-646 limits assumed): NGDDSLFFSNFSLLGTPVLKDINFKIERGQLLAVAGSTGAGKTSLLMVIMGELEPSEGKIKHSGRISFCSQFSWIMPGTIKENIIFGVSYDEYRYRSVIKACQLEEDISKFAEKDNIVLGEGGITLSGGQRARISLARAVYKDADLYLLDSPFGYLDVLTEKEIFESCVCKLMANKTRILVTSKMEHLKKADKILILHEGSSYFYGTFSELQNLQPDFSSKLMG

| SMILES | DSLS 3D (100 μM ΔT) (NBD1) | TECC (AUC, 10 μM) (CFTR) | also measured |
| --- | --- | --- | --- |
| COC(=O)[C@H](C)Cc1cccc(C2(C)CCCC(C)(C)CS(=O)(=O)/C=C/c3c(c(F)cc4c3ccn4S(=O)(=O)c3ccc(C)cc3)Oc3ccc(F)c(c3)-c3ccn2n3)c1 (stereo partly shown) |  |  | ring closure, isolated yield ([1]; Pd(PtBu3)2/Et3N, 0.65 mM, 100.0 °C): 11% |
| COC(=O)[C@H](C)Cc1cccc(C2(C)CCCC(C)(C)CS(=O)(=O)C=Cc3c(c(F)cc4[nH]ccc34)Oc3ccc(F)c(c3)-c3nc2nn3C)c1 (stereo partly shown) |  |  | ring closure, isolated yield ([1]; from C=CS(=O)(=O)CC(C)(C)CCCC(C)(c1cccc(C[C@@H](C)C(=O)OC)c1)c1nc(-c2cc(Oc3c(F)cc4[nH]ccc4c3Br)ccc2F)n(C)n1, Pd(PtBu3)2/second reagent truncated, 8.15 mM, 2.0 h): 48% |
| COC(=O)[C@H](C)Cc1cccc([C@@]2(C)CCCC(C)(C)CS(=O)(=O)/C=C/c3c(c(F)c(F)c4[nH]ccc34)Oc3ccc(F)c(c3)-c3nc2nn3C)c1 |  |  | ring closure, isolated yield ([1]; from C=CS(=O)(=O)CC(C)(C)CCC[C@](C)(c1cccc(C[C@@H](C)C(=O)OC)c1)c1nc(-c2cc(Oc3c(F)c(F)c4[nH]ccc4c3Br)ccc2F)n(C)n1, Pd(PtBu3)2/Et3N, 10.8 mM, 120.0 °C, 3.5 h): 68% |
| COC(=O)[C@H](C)Cc1cccc([C@@]2(C)CCCC(C)(C)CS(=O)(=O)/C=C/c3c(c(F)c(F)c4[nH]ccc34)Sc3ccnc(c3)-c3nc2nn3C)c1 |  |  | ring closure, isolated yield ([1]; Pd(PtBu3)2/Et3N, 21.3 mM, 120.0 °C): 56% |
| Cn1nc2nc1-c1cc(ccn1)Sc1c(F)c(F)c3[nH]ccc3c1CCS(=O)(=O)CC(C)(C)CCC[C@]2(C)c1cccc(C[C@@H](O)CO)c1 [Compound 282, (2R)-3-[3-[(6R)-21,22-difluoro-3,6,10,10-tetramethyl-12,12-dioxo-12λ6,24-dithia-3,4,19,28,30-pentazapentacyclo[23.3.1.12,5.015,23.016,20]triaconta-1(29),2(30),4,15,17,20,22,25,27-nonaen-6-yl]phenyl]propane-1,2-diol] | C (a value greater than 10 °C and less than or equal to 25 °C is marked “C”) | C (a value between 20 and 80 is marked “C”) |  |
| C[C@@H](Cc1cccc([C@@]2(C)CCCC(C)(C)CS(=O)(=O)CCc3c(c(F)cc4[nH]ccc34)[S+]([O-])c3ccnc(c3)-c3nc2nn3C)c1F)C(=O)O (stereo partly drawn) [Compound 283, (2S)-3-[2-fluoro-3-[(6R)-22-fluoro-3,6,10,10-tetramethyl-12,12,24-trioxo-12λ6,24λ4-dithia-3,4,19,28,30-pentazapentacyclo[23.3.1.12,5.015,23.016,20]triaconta-1(29),2(30),4,15,17,20,22,25,27-nonaen-6-yl]phenyl]-2-methyl-propanoic Acid] | C (a value greater than 10 °C and less than or equal to 25 °C is marked “C”) | C (a value between 20 and 80 is marked “C”) |  |
| Cn1nc2nc1-c1cc(ccc1F)[S+]([O-])c1c(F)cc3[nH]ccc3c1CCS(=O)(=O)CC(C)(C)CCC[C@]2(C)c1cccc(C[C@H](O)CO)c1 (stereo partly drawn) [Compound 286, (2S)-3-[3-[(6R)-22,28-difluoro-3,6,10,10-tetramethyl-12,12,24-trioxo-12λ6,24λ4-dithia-3,4,19,30-tetrazapentacyclo[23.3.1.12,5.015,23.016,20]triaconta-1(29),2(30),4,15,17,20,22,25,27-nonaen-6-yl]phenyl]propane-1,2-diol] | C (a value greater than 10 °C and less than or equal to 25 °C is marked “C”) | C (a value between 20 and 80 is marked “C”) |  |
| Cn1nc2nc1-c1cc(ccc1F)Sc1c(F)cc3[nH]ccc3c1CCS(=O)(=O)CC(C)(C)CCC[C@]2(C)c1cccc(C[C@H](O)CO)c1 [Compound 287, (2S)-3-[3-[(6R)-22,28-difluoro-3,6,10,10-tetramethyl-12,12-dioxo-12λ6,24-dithia-3,4,19,30-tetrazapentacyclo[23.3.1.12,5.015,23.016,20]triaconta-1(29),2(30),4,15,17,20,22,25,27-nonaen-6-yl]phenyl]propane-1,2-diol] | C (a value greater than 10 °C and less than or equal to 25 °C is marked “C”) | C (a value between 20 and 80 is marked “C”) |  |
| Cn1nc2nc1-c1cc(ccc1F)Oc1c(F)cc3[nH]ccc3c1CCS(=O)(=O)CC(C)(C)CCC[C@]2(C)c1cccc(CC2(C(=O)O)CC2)c1 [Compound 288, 1-[[3-[(6R)-22,28-difluoro-3,6,10,10-tetramethyl-12,12-dioxo-24-oxa-12λ6-thia-3,4,19,30-tetrazapentacyclo[23.3.1.12,5.015,23.016,20]triaconta-1(29),2(30),4,15,17,20,22,25,27-nonaen-6-yl]phenyl]methyl]cyclopropanecarboxylic Acid] | C (a value greater than 10 °C and less than or equal to 25 °C is marked “C”) | C (a value between 20 and 80 is marked “C”) |  |
| Cn1nc2nc1-c1cc(ccc1F)Oc1c(F)cc3[nH]ccc3c1CCS(=O)(=O)CC(C)(C)CCC[C@]2(C)c1cccc(CC(C)(C)C(=O)O)c1 [Compound 289, 3-[3-[(6R)-22,28-difluoro-3,6,10,10-tetramethyl-12,12-dioxo-24-oxa-12λ6-thia-3,4,19,30-tetrazapentacyclo[23.3.1.12,5.015,23.016,20]triaconta-1(29),2(30),4,15,17,20,22,25,27-nonaen-6-yl]phenyl]-2,2-dimethyl-propanoic Acid] | C (a value greater than 10 °C and less than or equal to 25 °C is marked “C”) | C (a value between 20 and 80 is marked “C”) |  |
| Cn1nc2nc1-c1cc(ccn1)Oc1c(F)cc3[nH]ccc3c1CCS(=O)(=O)CC(C)(C)CCC[C@]2(C)c1cccc(CC2(C(=O)O)CC2)c1 [Compound 290, 1-[[3-[(6R)-22-fluoro-3,6,10,10-tetramethyl-12,12-dioxo-24-oxa-12λ6-thia-3,4,19,28,30-pentazapentacyclo[23.3.1.12,5.015,23.016,20]triaconta-1(29),2(30),4,15,17,20,22,25,27-nonaen-6-yl]phenyl]methyl]cyclopropanecarboxylic Acid] | C (a value greater than 10 °C and less than or equal to 25 °C is marked “C”) | C (a value between 20 and 80 is marked “C”) |  |
| Cn1nc2nc1-c1cc(ccn1)Oc1c(F)cc3[nH]ccc3c1CCS(=O)(=O)CC(C)(C)CCC[C@]2(C)c1cccc(CC(C)(C)C(=O)O)c1 [Compound 291, 3-[3-[(6R)-22-fluoro-3,6,10,10-tetramethyl-12,12-dioxo-24-oxa-12λ6-thia-3,4,19,28,30-pentazapentacyclo[23.3.1.12,5.015,23.016,20]triaconta-1(29),2(30),4,15,17,20,22,25,27-nonaen-6-yl]phenyl]-2,2-dimethyl-propanoic Acid] | C (a value greater than 10 °C and less than or equal to 25 °C is marked “C”) | C (a value between 20 and 80 is marked “C”) |  |
| C[C@@H](Cc1cccc([C@@]2(C)CCCC(C)(C)CS(=O)(=O)CCc3c(c(F)cc4[nH]ccc34)Sc3cccc(c3)-c3nc2co3)c1)C(=O)O [Compound 293, (2S)-3-[3-[(6R)-22-fluoro-6,10,10-trimethyl-12,12-dioxo-3-oxa-12λ6,24-dithia-19,30-diazapentacyclo[23.3.1.12,5.015,23.016,20]triaconta-1(29),2(30),4,15,17,20,22,25,27-nonaen-6-yl]phenyl]-2-methyl-propanoic Acid] | C (a value greater than 10 °C and less than or equal to 25 °C is marked “C”) | B (a value between 12-20 is marked “B”) |  |
| C[C@@H](Cc1cccc([C@@]2(C)CCCC(C)(C)CS(=O)(=O)CCc3c(c(F)cc4[nH]ccc34)[S+]([O-])c3cccc(c3)-c3nc2co3)c1)C(=O)O (stereo partly drawn) [Compound 294, (2S)-3-[3-[(6R)-22-fluoro-6,10,10-trimethyl-12,12,24-trioxo-3-oxa-12λ6,24λ4-dithia-19,30-diazapentacyclo[23.3.1.12,5.015,23.016,20]triaconta-1(29),2(30),4,15,17,20,22,25,27-nonaen-6-yl]phenyl]-2-methyl-propanoic Acid] | C (a value greater than 10 °C and less than or equal to 25 °C is marked “C”) | A (a TECC value less than 12 is marked “A”) |  |
| Cn1nc2nc1-c1cc(ccc1F)Oc1c(F)cc3[nH]ccc3c1CCS(=O)(=O)CCCCOC2c1cccc(CCCO)c1 (stereo not shown) [Compound 296, 3-[3-(22,28-Difluoro-3-methyl-12,12-dioxo-7,24-dioxa-12lambda6-thia-3,4,19,30-tetrazapentacyclo[23.3.1.^12,5.0^15,23.0^16,20]triaconta-1(29),2(30),4,15(23),16(20),17,21,25,27-nonaen-6-yl)phenyl]propan-1-ol] | A (an ΔTagg value less than or equal to 5 °C is marked “A”) | A (a TECC value less than 12 is marked “A”) |  |
| Cn1nc2nc1-c1cc(ccc1F)Oc1c(F)cc3[nH]ccc3c1CCS(=O)(=O)CCCCOC2c1cccc(CCC(=O)O)c1 (stereo not shown) [Compound 297, 3-[3-(22,28-Difluoro-3-methyl-12,12-dioxo-7,24-dioxa-12λ6-thia-3,4,19,30-tetrazapentacyclo[23.3.1.12,5.015,23.016,20]triaconta-1(29),2(30),4,15(23),16(20),17,21,25,27-nonaen-6-yl)phenyl]propanoic Acid] | B (a value above 5 °C and less than or equal to 10 °C is marked “B”) | A (a TECC value less than 12 is marked “A”) |  |

Reference: patent publication US12649750B2, “Macrocyclic compounds, compositions, and methods of using thereof” (Sionna Therapeutics Inc., priority 2022, dated 2026)
